Experiments:
[1] = system: Abeta 1-42 produced and secreted by human neuroblastoma SKNBE2 cells expressing hAPP695; assay: Cellular αLisa assay in SKNBE2 cells, Abeta 1-42; format: cell-based; conditions: 18 hours incubation, read-out: Cellular αLisa assay in SKNBE2 cells Abeta 42 pIC50 (converted)
Procedure: (§1) In two αLisa assays the levels of Abeta total and Abeta 1-42 produced and secreted into the medium of human neuroblastoma SKNBE2 cells are quantified. The assay is based on the human neuroblastoma SKNBE2 expressing the wild type Amyloid Precursor Protein (hAPP695). The compounds are diluted and added to these cells, incubated for 18 hours and then measurements of Abeta 1-42 and Abeta total are taken. Abeta total and Abeta 1-42 are measured by sandwich αLisa. αLisa is a sandwich assay using biotinylated antibody AbN/25 attached to streptavidin coated beads and antibody Ab4G8 or cAb42/26 conjugated acceptor beads for the detection of Abeta total and Abeta 1-42 respectively. In the presence of Abeta total or Abeta 1-42, the beads come into close proximity. The excitation of the donor beads provokes the release of singlet oxygen molecules that trigger a cascade of energy transfer in the acceptor beads, resulting in light emission. Light emission is measured after 1 hour incubation (excitation at […] and emission at 615 nm).
(§2) A best-fit curve is fitted by a minimum sum of squares method to the plot of % Controlmin versus compound concentration. From this an IC50 value (inhibitory concentration causing 50% inhibition of activity) can be obtained. • LC=Median of the low control values • =Low control: cells preincubated without compound, without biotinylated Ab in the αLisa • HC=Median of the High control values • =High Control: cells preincubated without compound • % Effect=100−[(sample−LC)/(HC−LC)*100] • % Control=(sample/HC)*100 • % Controlmin=(sample−LC)/(HC−LC)*100

[2] = system: Abeta total produced and secreted by human neuroblastoma SKNBE2 cells expressing hAPP695; assay: Cellular αLisa assay in SKNBE2 cells, Abeta total; format: cell-based; conditions: 18 hours incubation, read-out: Cellular αLisa assay in SKNBE2 cells Abetatotal pIC50 (converted)
Procedure: as §1, §2

[3] = biological target: T1, recombinant BACE2 protein (Homo sapiens, UniProt Q9Y5Z0); assay: BACE2 biochemical FRET based assay; conditions: BACE2 0.4 μg/ml, 10 μM substrate, pH 5.0, 450 min; read-out: BACE2 Biochemical FRET based assay pIC50 (converted)
T1 sequence (Q9Y5Z0 63-518): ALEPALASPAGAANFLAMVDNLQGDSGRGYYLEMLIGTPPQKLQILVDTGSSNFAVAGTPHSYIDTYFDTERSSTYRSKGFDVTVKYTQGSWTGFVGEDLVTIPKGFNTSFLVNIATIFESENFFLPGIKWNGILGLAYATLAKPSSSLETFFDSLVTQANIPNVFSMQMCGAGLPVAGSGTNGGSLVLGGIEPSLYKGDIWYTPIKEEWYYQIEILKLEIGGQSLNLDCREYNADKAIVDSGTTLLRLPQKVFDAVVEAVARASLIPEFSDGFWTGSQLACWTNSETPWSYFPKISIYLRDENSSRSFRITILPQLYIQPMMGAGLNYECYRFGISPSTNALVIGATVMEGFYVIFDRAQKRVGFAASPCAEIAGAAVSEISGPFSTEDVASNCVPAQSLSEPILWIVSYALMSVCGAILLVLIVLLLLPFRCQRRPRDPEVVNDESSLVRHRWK
Source text: This assay is a Fluorescence Resonance Energy Transfer Assay (FRET) based assay. The substrate for this assay contains the ‘Swedish’ Lys-Met/Asn-Leu mutation of the amyloid precursor protein (APP) beta-secretase cleavage site. This substrate also contains two fluorophores: (7-methoxycoumarin-4-yl) acetic acid (Mca) is a fluorescent donor with excitation wavelength at 320 nm and emission at 405 nm and 2,4-Dinitrophenyl (Dnp) is a proprietary quencher acceptor. […] Upon cleavage by the beta-secretase, the fluorophore Mca is separated from the quenching group Dnp, restoring the full fluorescence yield of the donor. The increase in fluorescence is linearly related to the rate of proteolysis.
Briefly in a 384-well format recombinant BACE2 protein in a final concentration of 0.4 μg/ml is incubated for 450 minutes at room temperature with 10 μM substrate in incubation buffer (50 mM Citrate buffer pH 5.0, 0.05% PEG, no DMSO) in the absence or presence of compound. Next the amount of proteolysis is directly measured by fluorescence measurement at T=0 and T=450 (excitation at 320 nm and emission at 405 nm). Results are expressed in RFU (Relative Fluorescence Units), as difference between T450 and T0.
as §2, with “control: Reaction” for “control: cells preincubated”, “without enzyme” for “without compound, without biotinylated Ab in the αLisa”, “Control: Reaction with enzyme” for “Control: cells preincubated without compound”

IC50 [1] [nM] | IC50 [2] [nM] | IC50 [3] [nM] | SMILES
6.31 | 6.03 | 4.37 | Cn1cc2n(c1=O)C[C@@](C)(c1cc(NC(=O)c3ccc(Cl)cn3)ccc1F)N=C2N [Compound 4, N-{3-[(6R)-8-amino-2,6-dimethyl-3-oxo-5H-imidazo[1,5-a]pyrazin-6-yl]-4-fluoro-phenyl}-5-chloro-pyridine-2-carboxamide]
57.5 | 52.5 | 6.61 | Cc1nc(C(=O)Nc2ccc(F)c([C@]3(C)Cn4c(cn(C)c4=O)C(N)=N3)c2)co1 [Compound 3, N-{3-[(6R)-8-Amino-2,6-dimethyl-3-oxo-2,3,5,6-tetrahydroimidazo[1,5-a]pyrazin-6-yl]-4-fluorophenyl}-2-methyl-1,3-oxazole-4-carboxamide]
13.2 | 11.5 | 19.5 | Cn1cc2n(c1=O)C[C@@](C)(c1cc(NC(=O)c3ccc(C#N)cn3)ccc1F)N=C2N [Compound 1, N-{3-[(6R)-8-Amino-2,6-dimethyl-3-oxo-2,3,5,6-tetrahydroimidazo[1,5-a]pyrazin-6-yl]-4-fluorophenyl}-5-cyanopyridine-2-carboxamide]
